Results reported in ChEMBL document CHEMBL1138304, “New novobiocin analogues as antiproliferative agents in breast cancer cells and potential inhibitors of heat shock protein 90” (J Med Chem, 2007).
Active and inactive are the calls of the source. The calls are words filed in the database; no cut-off is given here.

What was measured:
MCF7 [1] = assay: Cell cycle arrest in MCF7 cells assessed as accumulation at G2/M phase at 200 uM after 72 hrs by flow cytometry; type: functional, Homo sapiens
MCF7 [2] = assay: Cell cycle arrest in MCF7 cells assessed as accumulation at S phase at 200 uM after 48 hrs by flow cytometry; type: functional, Homo sapiens
MCF7 [3] = assay: Cell cycle arrest in MCF7 cells assessed as accumulation at G0/G1 phase at 200 uM after 48 hrs by flow cytometry; type: functional, Homo sapiens
MCF7 [4] = assay: Cell cycle arrest in MCF7 cells assessed as accumulation at subG1 phase at 200 uM after 72 hrs by flow cytometry; type: functional, Homo sapiens
MCF7 [5] = assay: Cell cycle arrest in MCF7 cells assessed as accumulation at S phase at 200 uM after 72 hrs by flow cytometry; type: functional, Homo sapiens
MCF7 [6] = assay: Cell cycle arrest in MCF7 cells assessed as accumulation at subG1 phase at 200 uM after 48 hrs by flow cytometry; type: functional, Homo sapiens
MCF7 [7] = assay: Cell cycle arrest in MCF7 cells assessed as accumulation at G0/G1 phase at 200 uM after 72 hrs by flow cytometry; type: functional, Homo sapiens
MCF7 [8] = assay: Decrease in Raf1 expression in MCF7 cells at 200 uM after 18 hrs; type: functional, cell-based; conditions: Homo sapiens
MCF7 [9] = assay: Cell cycle arrest in MCF7 cells assessed as accumulation at G2/M phase at 200 uM after 48 hrs by flow cytometry; type: functional, Homo sapiens
MELN [10] = assay: Inhibition of basal ER-mediated transcription activity in MELN cells by measuring luciferase activity at 2 uM after 18 hrs; type: functional, cell-based; conditions: Homo sapiens
MELN [11] = assay: Inhibition of estradiol-induced ER-mediated transcription in MELN cells by measuring luciferase activity at 2 uM after 18 hrs; type: functional, cell-based; conditions: Homo sapiens
MELN [12] = assay: Inhibition of estradiol-induced ER-mediated transcription in MELN cells by measuring luciferase activity at 200 uM after 18 hrs; type: functional, cell-based; conditions: Homo sapiens
MCF7 [13] = assay: Growth inhibition of MCF7 cells after 72 hrs by MTT assay; type: functional, cell-based; conditions: Homo sapiens, MCF7, 72 h
MCF7 [14] = assay: Cytotoxicity against MCF7 cells assessed as cell viability at 200 uM after 72 hrs by MTT assay; type: functional; conditions: Homo sapiens, MCF7, 72 h; read-out: Activity
MCF7 [15] = assay: Decrease in HER2 expression in MCF7 cells at 200 uM after 18 hrs; type: functional, cell-based; conditions: Homo sapiens
MCF7 [16] = assay: Decrease in cdk4 protein level in MCF7 cells at 200 uM after 18 hrs; type: functional, cell-based; conditions: Homo sapiens

| SMILES | Activity (MCF7 [1]) | Activity (MCF7 [2]) | Activity (MCF7 [3]) | Activity (MCF7 [4]) | Activity (MCF7 [5]) | Activity (MCF7 [6]) | Activity (MCF7 [7]) | Activity (MCF7 [8]) | Activity (MCF7 [9]) | Activity (MELN [10]) | Activity (MELN [11]) | Activity (MELN [12]) | IC50 (MCF7 [13]) | viability at 200 µM (MCF7 [14]) | Activity (MCF7 [15]) | Activity (MCF7 [16]) |
| --- | --- | --- | --- | --- | --- | --- | --- | --- | --- | --- | --- | --- | --- | --- | --- | --- |
| Cc1ccc(S(=O)(=O)Oc2ccc3c(-c4ccc(Cl)cc4)c(NC(=O)c4ccc5c(c4)CCC(C)(C)O5)c(=O)oc3c2C)cc1 | 7.5% | 19.7% | 70.4% | 4.9% | 17.1% | 3.8% | 74.1% | Active | 9.9% |  |  |  |  |  |  |  |
| CC1(C)[C@@H](O)CC[C@]2(C)[C@H]3C(=O)C=C4[C@@H]5C[C@@](C)(C(=O)O)CC[C@]5(C)CC[C@@]4(C)[C@]3(C)CC[C@@H]12 |  |  |  |  |  |  |  |  |  | Active | Active |  |  |  |  |  |
| CO[C@@H]1[C@@H](OC(N)=O)[C@@H](O)[C@H](Oc2ccc3c(O)c(NC(=O)c4ccc(O)c(CC=C(C)C)c4)c(=O)oc3c2C)OC1(C)C [NOVOBIOCIN] | 19.3% | 19.7% | 59.9% | 9.8% | 21.3% | 5.9% | 58.3% |  | 19.3% |  |  | Active | 260 µM |  |  |  |
| COc1ccc2c(OC)c(NC(=O)c3ccc4c(c3)CCC(C)(C)O4)c(=O)oc2c1C | 7.2% | 28.4% | 56.7% | 3.8% | 14.8% | 7.5% | 77.8% |  | 11.9% |  |  |  |  | 75% |  |  |
| COc1ccc(-c2c(NC(=O)c3ccc4c(c3)CCC(C)(C)O4)c(=O)oc3c(C)c(OC)ccc23)cc1 | 7.7% | 15.3% | 71% | 4% | 9.5% | 3.7% | 81.3% |  | 11.5% |  |  |  |  |  |  |  |
| COc1ccc2c(O)c(NC(=O)c3ccc4c(c3)CCC(C)(C)O4)c(=O)oc2c1C | 6.5% | 16.2% | 71.9% | 2.5% | 8.5% | 3.3% | 85.4% |  | 10.7% |  |  |  |  | 75% |  |  |
| COc1ccc(C(=O)Nc2c(OC)c3ccc(OC)c(C)c3oc2=O)cc1CC=C(C)C | 6.9% | 14.4% | 73.3% | 3.8% | 10.2% | 3.6% | 82.1% |  | 10.8% |  |  |  |  |  | Active |  |
| Cc1c(O)ccc2c(O)c(NC(=O)c3ccc4c(c3)CCC(C)(C)O4)c(=O)oc12 [CYCLONOVOBIOCIC ACID] | 18.6% | 36.2% | 46.5% | 6% | 23.4% | 7.7% | 58.1% |  | 14.4% |  |  |  |  | 75% |  | Active |
